# Reference: US11981693B2, “Organogermanium compound” (ASAI Germanium Research Institute Co., Ltd., priority 2019, dated 2024)
# Read-outs that look alike come from different tables or passages of the source.
# Assays:
# [1] = Solubility of the THGP octamer in purified water or methanol, with pH of the solution; type: physicochemical
# Procedure: To 100 mg of the THGP octamer obtained in (1), the process of adding purified water or methanol in small portions and stirring for 30 minutes at room temperature was repeated, and the volume of the solution was measured when the THGP octamer was visually observed to as completely dissolved. The solubility of the THGP octamer (Solute Amount (g)/Total Mass (g)×100%) was calculated from the measured volume. Furthermore, the pH of the solution was measured when the THGP octamer was completely dissolved.
# [2] = Dissolution rate: time to visually complete dissolution in purified water; type: physicochemical
# Procedure: 100 mg of Ge-132 and 100 mg of the THGP octamer were added to 10 mL of purified water, respectively, and the mixtures were stirred at 300 rpm at room temperature, and then the time required to be visually observed as completely dissolved was measured.
# [3] = cited from earlier work
# [4] = conventional THGP polymers, stated as known property
Substance,pH of the aqueous solution (in words) ([1]; dissolved in water),"solubility in methanol (Solute Amount (g)/Total Mass (g)×100%) ([1]; methanol, room temperature)","solubility in water (Solute Amount (g)/Total Mass (g)×100%) ([1]; purified water, room temperature, visually complete dissolution)","solubility (mass (g) of solute in 100 g of saturated solution) in water ([1]; water, 20° C.)",pH of the aqueous solution ([1]; when completely dissolved in water),"time required to completely dissolve ([2]; 100 mg in 10 mL purified water, 300 rpm, room temperature)","dissolving time ([2]; water, 20° C., same conditions as Ge-132)","time required for the crystals to completely dissolve ([2]; 100 mg in 10 mL purified water (1% aqueous solution), 300 rpm, room temperature)","time required for complete dissolution ([2]; 1% in water, 20° C.)","solubility in organic solvents, such as methanol [3, 4]","solubility in water [3, 4]","solubility (mass (g) of solute in 100 g of saturated solution) in water ([3]; water, 20° C., known comparator value)"
"1,7,9,15-tetra(2′-sodium carboxyethylgermanium)-3,5,11,13-tetra-[sodium propanato(2-)-C^3′,O′]-germanium-2,4,6,8,10,12,14,16,17,18,19,20-dodecaoxa-pentacyclo[8.1^1,5.1^7,11.1^9,13.1^3,15.]icosane [THGP octamer]",neutral,1.4%,58.8%,58.8%,around 7.5,approximately 10 seconds,approximately 10 seconds,,,,,
poly-trans-[(2-carboxyethyl)germasesquioxane] [Ge-132],,,,,,,,≥ 30 min,≥ 30 min,insoluble,approximately 1%,approximately 1%
